# Laboratory results reported in ChEMBL document CHEMBL1201862, “PubChem BioAssay data set” (2004).
#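 96-well plates; 48 h exposure; 5 concentrations. Endpoints by linear interpolation between flanking doses. Not reached: highest tested concentration assigned. Here, GI50 denotes the concentration required for 50% inhibition of growth.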 Calls of active or inactive are those of the source. Rule as the data show it: active = GI50 up to about 1.1 µM and inactive = higher.
# Assays:
# Test in all cases: NCI-60 cell line screen, 48 h
# A498 = tested on: A498
# A549 = tested on: A549
# ACHN = tested on: ACHN
# BT-549 = tested on: BT-549
# CAKI-1 = tested on: CAKI-1
# CCRF-CEM = tested on: CCRF-CEM
# COLO 205 = tested on: COLO 205
# DU-145 = tested on: DU-145
# EKVX = tested on: EKVX
# HCC 2998 = tested on: HCC 2998
# HCT-116 = tested on: HCT-116
# HCT-15 = tested on: HCT-15
# HL-60 = tested on: HL-60
# HOP-62 = tested on: HOP-62
# HOP-92 = tested on: HOP-92
# HT-29 = tested on: HT-29
# Hs-578T = tested on: Hs-578T
# IGROV-1 = tested on: IGROV-1
# K562 = tested on: K562
# KM12 = tested on: KM12
# LOX IMVI = tested on: LOX IMVI
# M14 = tested on: M14
# MCF7 = tested on: MCF7
# MDA-MB-435 = tested on: MDA-MB-435
# MOLT-4 = tested on: MOLT-4
# Malme-3M = tested on: Malme-3M
# NCI-H226 = tested on: NCI-H226
# NCI-H23 = tested on: NCI-H23
# NCI-H460 = tested on: NCI-H460
# NCI-H522 = tested on: NCI-H522
# OVCAR-3 = tested on: OVCAR-3
# OVCAR-4 = tested on: OVCAR-4
# OVCAR-5 = tested on: OVCAR-5
# OVCAR-8 = tested on: OVCAR-8
# PC-3 = tested on: PC-3
# RPMI-8226 = tested on: RPMI-8226
# SF-268 = tested on: SF-268
# SF-295 = tested on: SF-295
# SF-539 = tested on: SF-539
# SK-MEL-28 = tested on: SK-MEL-28
# SK-MEL-2 = tested on: SK-MEL-2
# SK-MEL-5 = tested on: SK-MEL-5
# SK-OV-3 = tested on: SK-OV-3
# SNB-19 = tested on: SNB-19
# SNB-75 = tested on: SNB-75
# SR = tested on: SR
# SW-620 = tested on: SW-620
# T47D = tested on: T47D
# TK-10 = tested on: TK-10
# U-251 = tested on: U-251
# UACC-257 = tested on: UACC-257
# UACC-62 = tested on: UACC-62
# UO-31 = tested on: UO-31
smiles,measurement,setting,value
C/C(=C1\N=C(c2ccccc2)OC1=O)c1ccccc1,GI50,A498,> 100 µM (inactive)
same,GI50,A549,> 100 µM (inactive)
same,GI50,ACHN,> 100 µM (inactive)
same,GI50,BT-549,0.61 µM (active)
same,GI50,CAKI-1,> 100 µM (inactive)
same,GI50,CCRF-CEM,> 100 µM (inactive)
same,GI50,COLO 205,> 100 µM (inactive)
same,GI50,DU-145,> 100 µM (inactive)
same,GI50,EKVX,> 100 µM (inactive)
same,GI50,HCC 2998,> 100 µM (inactive)
same,GI50,HCT-116,> 100 µM (inactive)
same,GI50,HCT-15,> 100 µM
same,GI50,HL-60,> 100 µM (inactive)
same,GI50,HOP-62,> 100 µM (inactive)
same,GI50,HOP-92,> 100 µM (inactive)
same,GI50,HT-29,> 100 µM (inactive)
same,GI50,Hs-578T,> 100 µM (inactive)
same,GI50,IGROV-1,> 100 µM (inactive)
same,GI50,K562,> 100 µM (inactive)
same,GI50,KM12,> 100 µM (inactive)
same,GI50,LOX IMVI,> 100 µM (inactive)
same,GI50,M14,> 100 µM (inactive)
same,GI50,MCF7,> 100 µM (inactive)
same,GI50,MDA-MB-435,> 100 µM (inactive)
same,GI50,MOLT-4,> 100 µM (inactive)
same,GI50,Malme-3M,> 100 µM (inactive)
same,GI50,NCI-H226,> 100 µM (inactive)
same,GI50,NCI-H23,> 100 µM (inactive)
same,GI50,NCI-H460,> 100 µM (inactive)
same,GI50,NCI-H522,> 100 µM (inactive)
same,GI50,OVCAR-3,> 100 µM (inactive)
same,GI50,OVCAR-4,> 100 µM (inactive)
same,GI50,OVCAR-5,> 100 µM (inactive)
same,GI50,OVCAR-8,70.8 µM (inactive)
same,GI50,PC-3,> 100 µM (inactive)
same,GI50,RPMI-8226,> 100 µM (inactive)
same,GI50,SF-268,> 100 µM (inactive)
same,GI50,SF-295,> 100 µM (inactive)
same,GI50,SF-539,> 100 µM (inactive)
same,GI50,SK-MEL-28,> 100 µM (inactive)
same,GI50,SK-MEL-2,> 100 µM (inactive)
same,GI50,SK-MEL-5,> 100 µM (inactive)
same,GI50,SK-OV-3,> 100 µM (inactive)
same,GI50,SNB-19,> 100 µM (inactive)
same,GI50,SNB-75,0.611 µM (active)
same,GI50,SR,> 100 µM (inactive)
same,GI50,SW-620,> 100 µM (inactive)
same,GI50,T47D,> 100 µM (inactive)
same,GI50,TK-10,> 100 µM (inactive)
same,GI50,U-251,> 100 µM (inactive)
same,GI50,UACC-257,> 100 µM (inactive)
same,GI50,UACC-62,> 100 µM (inactive)
same,GI50,UO-31,> 100 µM (inactive)
